Data set [1] relates to K562 erythroleukaemia cell line. In words: In vitro antitumoral activity / toxicity assay (propidium iodide, flow cytofluorometry). In kind it is cell-based. The settings on record: FIG. 1. The procedure:
The compound described in example 1.3 and named 309 bis was tested to evaluate the "in vitro" antitumoral activity according to the following method:
Cell cultures. K562 erythroleukaemia cell line was obtained from ATCC (Rockville, Md., USA). Cell culture media and plastic were from Flow (U.K.). Cells were grown in RPMI 1640 medium supplemented with 10% (v/v) heat-inactivated foetal calf serum, 2mM L-glutamine, 2.0 g.1^-1 bicarbonate, and 10 mM Hepes (4-(2-hydroxyethyl)-1-piperazine ethanesulphonic acid) in humidified atmosphere with 5% (v/v) CO2 at 37° C. Coltures were performed without the addition of any antibiotics, and were routinely checked for the presence of Mycoplasma infection.
Toxicity assay. Cells were washed and suspended to the final concentration of 10^6 ml^-1 in a medium containing 5% (v/v) FCS. The chemical compounds under evaluation were diluted from a 2 mM stock solution containing 5% (v/v) FCS and 0.2% (v/v) dimethylsulphoxide (DMSO, FCS and medium were added in sequence to facilitate solubility); when necessary, solutions were treated with short sonical pulses. 0.2% DMSO was added to controls. […] The 560-580 nm fluorescence of the death cells, excited at 490-495 nm, was monitored on a FACS-analizer flow cytofluorometer (Becton Dickinson, Calif., USA) using a Consort 30 programme. […]

For data set [2], the target named is phosphatidylinositol-specific phospholipase C (PLC). In words: Inhibition of phosphatidylinositol-specific phospholipase C enzymatic activity (hydrolysis of [3H]phosphatidylinositol). The format is biochemical. The settings on record: soluble fraction of human platelets; 20 min preincubation, 15 min reaction, pH 6.5, 37° C.; read-out: IC50 (Inhibitor concentration inhibiting 50% of the enzyme). The procedure: The following experiments were carried out with the compounds prepared in the Examples 1-5 above mentioned in order to evaluate their ability to inhibit the enzymatic activity of phosphatidylinositol-specific phospholipase C (PLC).
The test were carried out according to the following operations.
1. Preparation of phosphatidylinositol-specific phospholipase C enzyme from human platelets.
As the starting material human plasma enriched with human platelets was used.
Platelets were precipitated from plasma by centrifugation at 0°-4° C. for 30 minutes at 2,500×g. The platelets precipitate was washed twice by using a buffer "A" Hepes pH 7 (137 mM NaCl, 20 mM Hepes; 1.0 mM EGTA; 5 mM glucose) and successively recovered by using buffer "B" Hepes (10 mM Hepes, pH 7).
The platelets were sonicated and centrifuged at 3,200×g for 20 minutes at 0-4° C. The surnatant consisting of platelets homogenate, was separated and ultracentrifuged at 105,000×g for 1 hour, thereby obtaining two fractions: the soluble one and the particulate one, both containing PLC.
2. Preparation of phosphatidylinositol substrate.
The substrate marked for PLC, L-3-phosphatidyl [2-^3 H] inositol, cod. […]
The product was purified by HPLC and had the following characteristics: specific activity 20 Ci/mMol (22.6 mCi/mg), radioactivity concentration 50μCi/ml ([…]=1.85 ×10^6 Bq); the hydroxyl groups 1 and 2 of glycerol resulted esterified with stearic acid and arachidonic acid in 90% of the product.
1 ml of a chloroform solution containing L-phosphatidylinositol (10 mg/ml sigma cod P 25/7 containing mainly stearic acid and arachidonic acid) was taken. […] Marked phosphatidylinositol was added to 9 ml of said solution in such an amount that in 300μl of the solution (2.0× 10^-4 M) thus obtained, 130,078±1316 Dpm were recorded. […]
In order to determine the inhibitory activity of the compounds of the present invention, said compounds and the enzyme were preincubated for 20 minutes. […] A suitable aliquot of the aqueous phase was utilized for the scintillatot readings.

Turning to `CCCCCCCCCCCCCCCCCCSP(=O)(O)O[C@@H]1[C@H](O)[C@H](O)[C@@H](O)[C@H](O)[C@H]1O` (relative stereo) [Example 1.3, 1-O-(OCTADECYLPHOSPHOTHIOLYL)-MYO-INOSITOL], in data set [1] (concentration 10^-3 -3×10^-3 M), the “% toxicity (percentage of killed cells), maximum” value is on record as ~100%. Moreover, the “antitumoral activity on erythroleukaemic cells” value in data set [1] (concentration 10^-5 M) is given as “shows antitumoral activity”.
`CCCCCCCCCCCCCCSP(=O)(O)O[C@@H]1[C@H](O)[C@H](O)[C@@H](O)[C@H](O)[C@H]1O` (relative stereo) [Example 3.3, 1-O-(TETRADECYLPHOSPHOTHIOLYL)-MYO-INOSITOL]: in data set [2], the IC50 was ~100 µM.
`CCCCCCCCCCCCSP(=O)(O)O[C@@H]1[C@H](O)[C@H](O)[C@@H](O)[C@H](O)[C@H]1O` (relative stereo) [Example 4.3, 1-O-(DODECYLPHOSPHOTHIOLYL)-MYO-INOSITOL]: the IC50 in data set [2] is > 100 µM.
On the same count and under the same terms, next, `CCCCCCCCSP(=O)(O)O[C@@H]1[C@H](O)[C@H](O)[C@@H](O)[C@H](O)[C@H]1O` (relative stereo) [Example 5.3, 1-O-(OCTYLPHOSPHOTHIOLYL)-MYO-INOSITOL]: > 100 µM.

The record behind these values is patent US5352810A, “Phosphatidylinositol analogues, inhibitors of phosphatidylinositol specific phospholipase C” (Mediolanum Farmaceutici S.p.A., priority 1991, dated 1994).
